Values of other authors as cited in patent US20100113581A1, “COMBINATION THERAPIES FOR THE TREATMENT OF OBESITY” (priority 2008, published 2010).

Experiments:
[1] = published studies of weight loss medications
[2] = cyclodextrin derivatives

Compound	weight loss of body weight for drug compared with placebo [1]	solubility in water [2]
CCN[C@@H](C)Cc1cccc(C(F)(F)F)c1 [dexfenfluramine]	about 5%	–
CCCCCCCCCCC[C@@H](C[C@@H]1OC(=O)[C@H]1CCCCCC)OC(=O)[C@H](CC(C)C)NC=O [orlistat]	about 5%	–
CC(C)CC(N(C)C)C1(c2ccc(Cl)cc2)CCC1 (centres unmarked) [sibutramine]	about 5%	–
G-2-beta-cyclodextrin	–	147 % (w/v)
triacetyl-beta-cyclodextrin	–	insoluble
